Assay results from ChEMBL document CHEMBL3885861, “Open TG-GATES”.

Species on record: Rattus norvegicus
Experiment: Open TG-GATES - Regimen: Single
Assay type: toxicity, organism-based, Sprague-Dawley
Set-up: regimen Single, gender Male, age 6 weeks
Settings: in vivo, po, 0 mg/kg, route gavage, dose level Control; for APTT / Bas / Eos / Fbg / Hb / Ht / Lym / MCH / MCHC / MCV / Mono / Neu / PT / Plat / RBC / Ret / WBC: tissue Blood; for KIDNEY_L / KIDNEY_R / KIDNEY_TOTAL: tissue Kidney; for LIVER: tissue Liver; for A/G / ALP / ALT / AST / BUN / CRE / Ca / Cl / DBIL / GLC / IP / K / LDH / Na / PL / RALB / TBIL / TC / TG / TP / gamma-GTP: tissue Plasma

Nc1ccc(Cc2ccc(N)cc2)cc1
TERMINAL_BW (3 h): 209.4 g
APTT (3 h): 13.9 s
Bas (3 h): 0%
Eos (3 h): 0.6%
Fbg (3 h): 263.2 mg/dL
Hb (3 h): 12.7 g/dL
Ht (3 h): 37.3%
Lym (3 h): 73.6%
MCH (3 h): 21.8 pg
MCHC (3 h): 34.1%
MCV (3 h): 63.9 fL
Mono (3 h): 3%
Neu (3 h): 21.2%
PT (3 h): 11.7 s
Plat (3 h): 145.5 x10_4/uL
RBC (3 h): 584.2 x10_4/ul
Ret (3 h): 9.5%
WBC (3 h): 100 x10_2/uL
KIDNEY_L (3 h): 0.9 g
KIDNEY_R (3 h): 0.9 g
KIDNEY_TOTAL (3 h): 1.8 g
LIVER (3 h): 9.5 g
A/G (3 h): 0.8
ALP (3 h): 1787.8 IU/L
ALT (3 h): 46.8 IU/L
AST (3 h): 90.8 IU/L
BUN (3 h): 9.8 mg/dL
CRE (3 h): 0.2 mg/dL
Ca (3 h): 11 mg/dL
Cl (3 h): 106.8 meq/L
DBIL (3 h): 0.024 mg/dL
GLC (3 h): 158.2 mg/dL
IP (3 h): 9.1 mg/dL
K (3 h): 3.7 meq/L
LDH (3 h): 72.6 IU/L
Na (3 h): 141.2 meq/L
PL (3 h): 149.8 mg/dL
RALB (3 h): 2.5 g/dL
TBIL (3 h): 0.056 mg/dL
TC (3 h): 76.8 mg/dL
TG (3 h): 128.2 mg/dL
TP (3 h): 5.6 g/dL
gamma-GTP (3 h): 1 IU/L
TERMINAL_BW (6 h): 206.4 g
APTT (6 h): 14.9 s
Bas (6 h): 0%
Eos (6 h): 1%
Fbg (6 h): 279.2 mg/dL
Hb (6 h): 13 g/dL
Ht (6 h): 38%
Lym (6 h): 74.2%
MCH (6 h): 21.4 pg
MCHC (6 h): 34.1%
MCV (6 h): 62.8 fL
Mono (6 h): 2.6%
Neu (6 h): 21.6%
PT (6 h): 11.6 s
Plat (6 h): 134.9 x10_4/uL
RBC (6 h): 606 x10_4/ul
Ret (6 h): 8%
WBC (6 h): 104.9 x10_2/uL
KIDNEY_L (6 h): 0.9 g
KIDNEY_R (6 h): 0.9 g
KIDNEY_TOTAL (6 h): 1.8 g
LIVER (6 h): 8.5 g
A/G (6 h): 0.8
ALP (6 h): 1552.8 IU/L
ALT (6 h): 35.2 IU/L
AST (6 h): 75 IU/L
BUN (6 h): 9 mg/dL
CRE (6 h): 0.2 mg/dL
Ca (6 h): 10.8 mg/dL
Cl (6 h): 107.4 meq/L
DBIL (6 h): 0.024 mg/dL
GLC (6 h): 165 mg/dL
IP (6 h): 10 mg/dL
K (6 h): 4.2 meq/L
LDH (6 h): 67 IU/L
Na (6 h): 141.8 meq/L
PL (6 h): 131.6 mg/dL
RALB (6 h): 2.5 g/dL
TBIL (6 h): 0.062 mg/dL
TC (6 h): 71.2 mg/dL
TG (6 h): 59.4 mg/dL
TP (6 h): 5.7 g/dL
gamma-GTP (6 h): 1.4 IU/L
TERMINAL_BW (9 h): 204.2 g
APTT (9 h): 14.5 s
Bas (9 h): 0%
Eos (9 h): 0.8%
Fbg (9 h): 277 mg/dL
Hb (9 h): 12.7 g/dL
Ht (9 h): 37.3%
Lym (9 h): 73.4%
MCH (9 h): 21.1 pg
MCHC (9 h): 34.2%
MCV (9 h): 61.8 fL
Mono (9 h): 1.8%
Neu (9 h): 23.6%
PT (9 h): 11.7 s
Plat (9 h): 137.5 x10_4/uL
RBC (9 h): 603.8 x10_4/ul
Ret (9 h): 8%
WBC (9 h): 65.4 x10_2/uL
KIDNEY_L (9 h): 0.9 g
KIDNEY_R (9 h): 0.9 g
KIDNEY_TOTAL (9 h): 1.7 g
LIVER (9 h): 7.8 g
A/G (9 h): 0.8
ALP (9 h): 1332.6 IU/L
ALT (9 h): 27.4 IU/L
AST (9 h): 64.4 IU/L
BUN (9 h): 8.8 mg/dL
CRE (9 h): 0.2 mg/dL
Ca (9 h): 10.5 mg/dL
Cl (9 h): 106.4 meq/L
DBIL (9 h): 0.018 mg/dL
GLC (9 h): 174.2 mg/dL
IP (9 h): 10.5 mg/dL
K (9 h): 4 meq/L
LDH (9 h): 58.2 IU/L
Na (9 h): 143 meq/L
PL (9 h): 129.6 mg/dL
RALB (9 h): 2.5 g/dL
TBIL (9 h): 0.064 mg/dL
TC (9 h): 77.8 mg/dL
TG (9 h): 42.4 mg/dL
TP (9 h): 5.6 g/dL
gamma-GTP (9 h): 1 IU/L
TERMINAL_BW (24 h): 219.7 g
APTT (24 h): 12.6 s
Bas (24 h): 0%
Eos (24 h): 1%
Fbg (24 h): 258.8 mg/dL
Hb (24 h): 13.1 g/dL
Ht (24 h): 37.9%
Lym (24 h): 73.2%
MCH (24 h): 21.2 pg
MCHC (24 h): 34.5%
MCV (24 h): 61.6 fL
Mono (24 h): 1.8%
Neu (24 h): 23.2%
PT (24 h): 11.4 s
Plat (24 h): 146.9 x10_4/uL
RBC (24 h): 616.8 x10_4/ul
Ret (24 h): 6.8%
WBC (24 h): 88.9 x10_2/uL
KIDNEY_L (24 h): 0.9 g
KIDNEY_R (24 h): 0.9 g
KIDNEY_TOTAL (24 h): 1.9 g
LIVER (24 h): 9.5 g
A/G (24 h): 0.9
ALP (24 h): 1942.2 IU/L
ALT (24 h): 38.6 IU/L
AST (24 h): 74 IU/L
BUN (24 h): 14.6 mg/dL
CRE (24 h): 0.2 mg/dL
Ca (24 h): 10.9 mg/dL
Cl (24 h): 106.4 meq/L
DBIL (24 h): 0.02 mg/dL
GLC (24 h): 167 mg/dL
IP (24 h): 7.7 mg/dL
K (24 h): 3.9 meq/L
LDH (24 h): 49.2 IU/L
Na (24 h): 143.2 meq/L
PL (24 h): 135.4 mg/dL
RALB (24 h): 2.6 g/dL
TBIL (24 h): 0.044 mg/dL
TC (24 h): 72 mg/dL
TG (24 h): 89.6 mg/dL
TP (24 h): 5.5 g/dL
gamma-GTP (24 h): 1 IU/L
